Assay type in all cases: in vivo
Test [1] has as its system Lolium perenne (LOLPE). The test is described as follows: Post-emergence herbicidal activity, glasshouse pot test. Conditions: Lolium perenne, evaluated after 14 or 15 days, read-out: Post-emergence activity, LOLPE (100=total damage to plant; 0=no damage to plant); for pest or weed control at 125 g/ha: rate 125 g/ha; for pest or weed control at 500 g/ha: rate 500 g/ha. As for the experimental part:
(§1) Monocotyledonous and dicotyledonous test plants were sown in sterilised standard soil in pots. After cultivation for one day (pre-emergence) or after 10 days cultivation (post-emergence) under controlled conditions in a glasshouse, the plants were sprayed with an aqueous spray solution derived from the formulation of the technical active ingredient in 0.6 ml acetone and 45 ml formulation solution containing 10.6% Emulsogen EL (Registry number 61791-12-6), 42.2% N-methylpyrrolidone, 42.2% dipropylene glycol monomethyl ether (Registry number 34590-94-8) and 0.2% X-77 (Registry number 11097-66-8). The test plants were then grown in a greenhouse under optimum conditions until, 14 or 15 days later for post-emergence and 20 days for pre-emergence, the test was evaluated (100=total damage to plant; 0=no damage to plant). Alopecurus myosuroides (ALOMY), Avena fatua (AVEFA), Lolium perenne (LOLPE), Setaria faberi (SETFA), Digitaria sanguinalis (DIGSA), Echinochloa crus-galli (ECHCG) Post-Emergence Activity

For test [2], the system named is Echinochloa crus-galli (ECHCG). The test is described as above. Conditions: Echinochloa crus-galli, evaluated after 14 or 15 days, read-out: Post-emergence activity, ECHCG (100=total damage to plant; 0=no damage to plant); for pest or weed control at 125 g/ha: rate 125 g/ha; for pest or weed control at 500 g/ha: rate 500 g/ha. As for the experimental part: as §1
The subject of test [3] is Setaria faberi (SETFA). The test is described as above. The note with it: Setaria faberi, evaluated after 14 or 15 days, read-out: Post-emergence activity, SETFA (100=total damage to plant; 0=no damage to plant); for pest or weed control at 125 g/ha: rate 125 g/ha; for pest or weed control at 500 g/ha: rate 500 g/ha. On the procedure: as §1
Test [4] concerns Avena fatua (AVEFA). The test is described as above. The note with it: Avena fatua, evaluated after 14 or 15 days, read-out: Post-emergence activity, AVEFA (100=total damage to plant; 0=no damage to plant); for pest or weed control at 125 g/ha: rate 125 g/ha; for pest or weed control at 500 g/ha: rate 500 g/ha. On the procedure: as §1
In test [5] the test system is Alopecurus myosuroides (ALOMY). Described as above. The note with it: Alopecurus myosuroides, evaluated after 14 or 15 days, read-out: Post-emergence activity, ALOMY (100=total damage to plant; 0=no damage to plant); for pest or weed control at 125 g/ha: rate 125 g/ha; for pest or weed control at 500 g/ha: rate 500 g/ha. As for the experimental part: as §1
The subject of test [6] is Digitaria sanguinalis (DIGSA). Described as above. The note with it: Digitaria sanguinalis, evaluated after 14 or 15 days, read-out: Post-emergence activity, DIGSA (100=total damage to plant; 0=no damage to plant); for pest or weed control at 125 g/ha: rate 125 g/ha; for pest or weed control at 500 g/ha: rate 500 g/ha. On the procedure: as §1
Test [7] deals with Lolium perenne (LOLPE). The test is described as follows: Pre-emergence herbicidal activity, glasshouse pot test. The note with it: Lolium perenne, 480 h, rate 500 g/ha, evaluated after 20 days, read-out: Pre-emergence activity, LOLPE (100=total damage to plant; 0=no damage to plant). On the procedure: as §1, with “Pre-Emergence” for “Post-Emergence”
Test [8] deals with Echinochloa crus-galli (ECHCG). Described as above. Conditions: Echinochloa crus-galli, 480 h, rate 500 g/ha, evaluated after 20 days, read-out: Pre-emergence activity, ECHCG (100=total damage to plant; 0=no damage to plant). As for the experimental part:
as §1, with “Pre-Emergence” for “Post-Emergence”

In test [9] the test system is Setaria faberi (SETFA). The test is described as above. The note with it: Setaria faberi, 480 h, rate 500 g/ha, evaluated after 20 days, read-out: Pre-emergence activity, SETFA (100=total damage to plant; 0=no damage to plant). As for the experimental part:
as §1, with “Pre-Emergence” for “Post-Emergence”

Test [10] has as its system Avena fatua (AVEFA). The description is as above. Conditions: Avena fatua, 480 h, rate 500 g/ha, evaluated after 20 days, read-out: Pre-emergence activity, AVEFA (100=total damage to plant; 0=no damage to plant). As for the experimental part: as §1, with “Pre-Emergence” for “Post-Emergence”
For test [11], the system named is Alopecurus myosuroides (ALOMY). The test is described as above. The note with it: Alopecurus myosuroides, 480 h, rate 500 g/ha, evaluated after 20 days, read-out: Pre-emergence activity, ALOMY (100=total damage to plant; 0=no damage to plant). As for the experimental part:
as §1, with “Pre-Emergence” for “Post-Emergence”

The test system of test [12] is Digitaria sanguinalis (DIGSA). The description is as above. Conditions: Digitaria sanguinalis, 480 h, rate 500 g/ha, evaluated after 20 days, read-out: Pre-emergence activity, DIGSA (100=total damage to plant; 0=no damage to plant). As for the experimental part:
as §1, with “Pre-Emergence” for “Post-Emergence”

As to `CCc1cc(C)cc(CC)c1C1=C(OC(C)=O)CC2(CCOCC2)CC1=O` [Compound P1], the pest or weed control at 125 g/ha in the test with Lolium perenne (LOLPE) [1] stood at 30%; in test [2], 50%; with Setaria faberi (SETFA) [3], 30%; with Avena fatua (AVEFA) [4], 60%; in test [5], 50%; in test [6], 50%. Also, the pest or weed control at 500 g/ha (with Lolium perenne (LOLPE) [7]; in test [8]; with Setaria faberi (SETFA) [9]; with Avena fatua (AVEFA) [10]; in [11]; in test [12]) was 100% in each case.

For the molecule `CCc1cc(C)cc(CC)c1C1=C(OC(=O)C(C)C)CC2(CCOCC2)CC1=O` [Compound P3], the pest or weed control at 125 g/ha was determined as 100% in the test on Lolium perenne (LOLPE) [1]; 100% in [2]; 90% with Setaria faberi (SETFA) [3]; 100% in the test on Avena fatua (AVEFA) [4]; 100% in test [5]; 90% in [6]. Also, the pest or weed control at 500 g/ha (in the test on Lolium perenne (LOLPE) [7]; in [8]; in the test on Setaria faberi (SETFA) [9]; with Avena fatua (AVEFA) [10]; in test [11]; in [12]) was 100% each time.

As to `CCc1cc(C)cc(CC)c1C1=C(OC(=O)C(C)(C)C)CC2(CCOCC2)CC1=O` [Compound P4], the pest or weed control at 500 g/ha in the test with Lolium perenne (LOLPE) [1] was determined as 100%; in test [2], 100%; in the test on Setaria faberi (SETFA) [3], 80%; in the test with Avena fatua (AVEFA) [4] it was 90%; in test [5] it was 100%; in [6] it was 80%. In addition, the pest or weed control at 500 g/ha came out at 100% in the test on Lolium perenne (LOLPE) [7]; 90% in [8]; 100% in the test with Setaria faberi (SETFA) [9]; 100% in the test with Avena fatua (AVEFA) [10]; 100% in test [11]; 100% in [12].

Consider `C=CCOC1=C(c2c(CC)cc(C)cc2CC)C(=O)CC2(CCOCC2)C1` [Compound P34], for which the pest or weed control at 125 g/ha in the test on Lolium perenne (LOLPE) [1] is 0%; in [2], 0%; with Setaria faberi (SETFA) [3], 0%; in the test with Avena fatua (AVEFA) [4] it was 0%; in test [5] it was 0%; in test [6], 30%. The pest or weed control at 500 g/ha with Lolium perenne (LOLPE) [7] was 100%; in test [8] it was 30%; in the test on Setaria faberi (SETFA) [9], 30%; with Avena fatua (AVEFA) [10], 70%; in test [11], 100%.

Regarding `CCc1cc(C)cc(CC)c1C1=C(OC(=O)C(C)(C)C)CC(C(C)(C)SC)CC1=O` (centres unmarked) [Compound P52], the pest or weed control at 500 g/ha in the test on Lolium perenne (LOLPE) [1] came out at 100%; in test [2], 90%; with Setaria faberi (SETFA) [3], 90%; in the test with Avena fatua (AVEFA) [4], 90%; in test [5] it was 100%; in test [6], 90%. For the same molecule, the pest or weed control at 500 g/ha (in [8]; with Setaria faberi (SETFA) [9]; in the test with Avena fatua (AVEFA) [10]; in [11]; in [12]) was 100% in each case.

For `CCc1cc(C)cc(CC)c1C1=C(O)CC(C2CCCO2)CC1=O` (centres unmarked) [Compound T8], the pest or weed control at 500 g/ha in the test on Lolium perenne (LOLPE) [1] is 100%; in test [2] it was 100%; with Setaria faberi (SETFA) [3] it was 90%; in the test on Avena fatua (AVEFA) [4], 90%; in test [5], 100%; in test [6], 90%. Also, the pest or weed control at 500 g/ha is 100% in the test on Lolium perenne (LOLPE) [7]; 100% in [8]; 100% in the test with Setaria faberi (SETFA) [9]; 80% in the test with Avena fatua (AVEFA) [10]; 100% in test [11].

`CCSC(C)CC1CC(=O)C(c2c(C)cc(C)cc2C)=C(O)C1` (centres unmarked) [Compound T9]: the pest or weed control at 500 g/ha in the test on Lolium perenne (LOLPE) [1] is 50%; in test [2] it was 80%; in the test with Setaria faberi (SETFA) [3] it was 80%; in the test with Avena fatua (AVEFA) [4], 50%; in [5], 50%; in test [6], 90%. Besides, the pest or weed control at 500 g/ha with Lolium perenne (LOLPE) [7] came to 0%; with Avena fatua (AVEFA) [10], 30%; in test [11], 30%; in [12], 40%.

As to `CCc1cc(C)cc(CC)c1C1=C(O)CC2(CCSCC2)CC1=O` [Compound T11], the pest or weed control at 500 g/ha in the test with Lolium perenne (LOLPE) [1] turned out to be 70%; in [2] it was 90%; in the test with Setaria faberi (SETFA) [3], 90%; with Avena fatua (AVEFA) [4], 80%; in [5], 80%; in [6] it was 90%. For the same molecule, the pest or weed control at 500 g/ha was 100% with Lolium perenne (LOLPE) [7]; 80% in test [8]; 90% with Setaria faberi (SETFA) [9]; 80% in test [11]; 90% in [12].

As to `CCCS(=O)(=O)C(C)CC1CC(=O)C(c2c(CC)cc(C)cc2CC)=C(O)C1` (centres unmarked) [Compound T36], the pest or weed control at 500 g/ha in the test on Lolium perenne (LOLPE) [1] is 90%; in test [2], 100%; with Setaria faberi (SETFA) [3] it was 50%; in the test on Avena fatua (AVEFA) [4], 90%; in test [5] it was 90%; in test [6], 70%. Moreover, the pest or weed control at 500 g/ha in the test with Lolium perenne (LOLPE) [7] amounted to 100%; in the test with Setaria faberi (SETFA) [9] it was 100%; with Avena fatua (AVEFA) [10], 90%; in [11], 100%; in test [12] it was 100%.
